# Laboratory results taken from US20250100996A1, “HETEROCYCLOALKYL AND HETEROARYL COMPOUNDS AND PHARMACEUTICAL COMPOSITIONS THAT MODULATE IKZF2” (Plexium, Inc., priority 2021, published 2025).
# pEC50: −log10 of the molar value.
# Experiments:
# [1] = target: T1, human E3 ligase component cereblon (CRBN) (Homo sapiens, UniProt Q96SW2); experiment: Cereblon (CRBN) target engagement, NanoBRET TE Intracellular E3 Ligase Assay in transfected HEK-293T cells; conditions: read-out: CRBN Binding EC50
# T1 construct: host or cells: HEK293T
# Outline: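 Tracer displacement was read as the 610/450 nm BRET signal after 2 h at 37° C with an 11-point dilution series, typically 10 μM to 100 pM. Live HEK-293T cells expressed NanoLuc fused N-terminal to human CRBN together with DDB1. IC50 was fitted with a four-parameter logistic model.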
# [2] = target: T2, IKZF2 (Helios) (Homo sapiens, UniProt Q96SW2+Q9UKS7); experiment: IKZF2 reporter degradation assay (HEK 293T IKZF2-mNeonGreen reporter cell line); type: cell-based; conditions: @ 1 μM, HEK 293T IKZF2-mNeonGreen reporter, 24 hours incubation; for inhibition at 1 µM: HEK-293T, 24 h
# T2 construct: Leu-Asp junction (codons ctcgac before the linker); mScarlet (behind P2A) (C, cleaved yes); expressed in transfected cells
# Outline: (§1)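 In reporter HEK 293T clones, the FITC exposure was 1000 ms for the IKZF2 line and 500 ms for the IKZF1 and IKZF3 lines. Imaging followed 24 h of compound treatment, and percent-positive scoring was fitted to a four-parameter logistic curve for DC50.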
# [3] = target: T3, IKZF2 (Helios) (Homo sapiens, UniProt Q9UKS7); experiment: as above; type: cell-based; conditions: HEK 293T IKZF2-mNeonGreen reporter, 24 hours incubation
# T3 construct: Leu-Asp junction (codons ctcgac before the linker); mScarlet (behind P2A) (C, cleaved yes); expressed in transfected cells
# Outline: as §1
# [4] = target: T4, IKZF3 (Aiolos) (Homo sapiens, UniProt Q9UKT9); experiment: IKZF3 reporter degradation assay (HEK 293T IKZF3-mNeonGreen reporter cell line); type: cell-based; conditions: HEK 293T IKZF3-mNeonGreen reporter, 24 hours incubation; for inhibition at 1 µM: HEK-293T, 24 h
# T4 construct: Leu-Asp junction (codons ctcgac before the linker); mScarlet (behind P2A) (C, cleaved yes); expressed in transfected cells
# Description: Polycistronic plasmids were constructed for the mammalian expression of fluorescent reporter fusions of human transcription factors IKZF1 (Ikaros), IKZF2 (Helios), and IKZF3 (Aiolos). The respective protein sequences had their C-terminal end joined to a GGGGS linker repeated three times followed by mNeonGreen, P2A sequence, and mScarlet. The DNA sequences of the open reading frames are as follows:
# IKZF1, IKZF2, and IKZF3 constructs were cloned into the UCOE Hygromycin expression vectors (Millipore Sigma). Reporter constructs were transfected using cationic lipid reagents into adherent HEK 293T cells and stable integrants were selected by treatment with 200 μg/mL hygromycin B. Clonal populations were obtained from the population of stable integrants either by limiting dilution or fluorescence activated cell sorting.
# The clonal stable cell lines were maintained under constant 200 μg/mL hygromycin B selection while being passaged for use in the degradation assays. […] The fluorescence intensity of the IKZF1/2/3-mNeonGreen (FITC channel) and mScarlet (PE channel) reporters were routinely analyzed by flow cytometry to confirm consistent expression levels between experiments.
# The IKZF1/IKZF2/IKZF3 degradation assays were carried out by harvesting the HEK 293T reporter cell lines and resuspending the cells in media formulated for reduced background fluorescence (FluoroBrite; Thermo Fisher). The respective cell lines were seeded at a density of 4000 cells/well into black-walled 384-well optical grade assay tissue culture plates. The cells were incubated overnight at 37° C. to allow for attachment to the assay plate. Dilutions of the compounds were prepared in DMSO from 10 mM compound stocks. The assay plates were treated with appropriate concentrations of the compounds by dispensing the DMSO dilutions in quadruplicate wells with an upper limit of 0.5% final DMSO.
# After 24 hours incubation with the compounds, the assay plates were imaged on an ImageXpress Pico microscopy system (cells maintained at 37° C. during imaging) to obtain the fluorescent readouts. The assay plates were imaged in the FITC and Tetramethylrhodamine (TRITC) channels to obtain the mNeonGreen fluorescence intensity (reporter degradation data) and mScarlet fluorescence intensity (for cell segmentation). 293T-IKZF1 and 293T-IKZF3 reporter cell lines were imaged with exposures of 500 milliseconds (ms) for both FITC and TRITC channels, while the 293T-IKZF2 reporter cell line was imaged with exposures of 1000 ms for FITC and 1250 ms for TRITC. The resulting data was analyzed with Cell Reporter Xpress software using the 2-channel cell scoring analysis with a “percent positive” readout. The TRITC channel was selected for the “nuclei” segmentation with a threshold of 20 while the FITC channel was selected for the “Marker 1” segmentation and a threshold of 100 for the IKZF1 and IKZF3 reporter lines. […] The minimum segmentation width was set to 6 micrometers and the maximum segmentation width was set to 15 micrometers for all cell lines. The DC50 calculations were determined by regression to best fit four-parameter logistic curves using GraphPad Prism.
# T3 sequence (Q9UKS7 whole entry): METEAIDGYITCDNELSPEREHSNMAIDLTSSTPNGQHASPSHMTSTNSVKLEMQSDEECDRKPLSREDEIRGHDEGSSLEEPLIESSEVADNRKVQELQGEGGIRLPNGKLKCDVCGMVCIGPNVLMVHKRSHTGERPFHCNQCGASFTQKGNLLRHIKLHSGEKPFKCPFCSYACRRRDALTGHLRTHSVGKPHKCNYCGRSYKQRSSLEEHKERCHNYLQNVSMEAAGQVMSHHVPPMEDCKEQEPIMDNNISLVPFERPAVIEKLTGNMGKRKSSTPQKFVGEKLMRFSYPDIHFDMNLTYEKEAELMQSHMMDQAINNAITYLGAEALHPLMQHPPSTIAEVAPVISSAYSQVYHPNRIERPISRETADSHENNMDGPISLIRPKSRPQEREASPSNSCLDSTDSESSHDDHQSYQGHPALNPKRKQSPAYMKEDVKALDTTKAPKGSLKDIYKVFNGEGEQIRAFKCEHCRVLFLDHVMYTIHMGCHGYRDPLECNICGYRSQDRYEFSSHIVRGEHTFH
# T3 sequence (Q96SW2 whole entry, further chain): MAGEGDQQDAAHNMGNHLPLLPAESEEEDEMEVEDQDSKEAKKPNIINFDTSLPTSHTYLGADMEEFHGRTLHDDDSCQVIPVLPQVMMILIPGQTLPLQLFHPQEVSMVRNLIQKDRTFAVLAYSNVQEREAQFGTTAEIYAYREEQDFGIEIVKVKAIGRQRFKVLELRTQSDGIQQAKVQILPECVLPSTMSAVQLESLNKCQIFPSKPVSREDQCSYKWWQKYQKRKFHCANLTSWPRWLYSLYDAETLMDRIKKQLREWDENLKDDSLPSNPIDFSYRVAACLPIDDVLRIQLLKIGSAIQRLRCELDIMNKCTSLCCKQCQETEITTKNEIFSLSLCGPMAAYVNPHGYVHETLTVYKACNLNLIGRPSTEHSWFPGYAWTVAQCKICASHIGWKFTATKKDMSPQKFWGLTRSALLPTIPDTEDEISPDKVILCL
# T3 sequence (Q16531 whole entry partner): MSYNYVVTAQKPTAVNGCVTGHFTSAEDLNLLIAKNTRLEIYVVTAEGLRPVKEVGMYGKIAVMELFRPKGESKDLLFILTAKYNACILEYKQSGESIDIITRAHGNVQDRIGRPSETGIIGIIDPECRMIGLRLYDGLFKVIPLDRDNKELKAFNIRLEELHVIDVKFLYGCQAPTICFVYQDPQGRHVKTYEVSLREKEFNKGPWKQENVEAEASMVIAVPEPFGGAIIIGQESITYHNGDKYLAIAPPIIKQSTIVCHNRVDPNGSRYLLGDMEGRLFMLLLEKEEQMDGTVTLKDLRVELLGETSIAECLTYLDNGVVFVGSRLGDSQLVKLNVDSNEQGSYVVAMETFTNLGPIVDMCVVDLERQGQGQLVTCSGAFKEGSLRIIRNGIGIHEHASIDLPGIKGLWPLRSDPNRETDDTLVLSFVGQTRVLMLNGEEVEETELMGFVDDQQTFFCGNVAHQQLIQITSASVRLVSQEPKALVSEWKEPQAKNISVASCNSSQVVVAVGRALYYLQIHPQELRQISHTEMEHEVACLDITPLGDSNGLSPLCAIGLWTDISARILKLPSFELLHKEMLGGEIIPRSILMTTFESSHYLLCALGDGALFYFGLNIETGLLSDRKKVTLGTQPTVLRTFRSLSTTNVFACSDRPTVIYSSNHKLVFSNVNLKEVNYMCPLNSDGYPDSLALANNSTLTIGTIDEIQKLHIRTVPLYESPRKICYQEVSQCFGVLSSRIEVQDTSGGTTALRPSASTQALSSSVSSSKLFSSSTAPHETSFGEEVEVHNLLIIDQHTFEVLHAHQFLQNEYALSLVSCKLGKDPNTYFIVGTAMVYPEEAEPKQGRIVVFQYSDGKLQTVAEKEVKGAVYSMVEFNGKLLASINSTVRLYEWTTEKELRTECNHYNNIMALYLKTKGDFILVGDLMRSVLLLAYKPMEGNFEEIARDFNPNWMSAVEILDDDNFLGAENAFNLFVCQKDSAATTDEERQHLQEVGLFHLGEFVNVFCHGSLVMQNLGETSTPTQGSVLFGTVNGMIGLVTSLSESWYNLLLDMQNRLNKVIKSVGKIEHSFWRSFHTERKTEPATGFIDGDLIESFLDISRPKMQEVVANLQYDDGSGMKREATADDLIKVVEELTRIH
# T2 sequence (Q9UKS7 whole entry): as the sequence (Q9UKS7 whole entry) above
# T2 sequence (Q96SW2 whole entry): as the sequence (Q96SW2 whole entry, further chain) above
# T2 sequence (Q16531 whole entry partner): as the sequence (Q16531 whole entry partner) above
# T1 sequence (Q96SW2 whole entry): as the sequence (Q96SW2 whole entry, further chain) above
# T1 sequence (Q16531 whole entry partner): as the sequence (Q16531 whole entry partner) above
# T4 sequence (Q96SW2 whole entry partner): as the sequence (Q96SW2 whole entry, further chain) above
# T4 sequence (Q16531 whole entry partner): as the sequence (Q16531 whole entry partner) above
# T4 sequence (Q9UKT9 whole entry): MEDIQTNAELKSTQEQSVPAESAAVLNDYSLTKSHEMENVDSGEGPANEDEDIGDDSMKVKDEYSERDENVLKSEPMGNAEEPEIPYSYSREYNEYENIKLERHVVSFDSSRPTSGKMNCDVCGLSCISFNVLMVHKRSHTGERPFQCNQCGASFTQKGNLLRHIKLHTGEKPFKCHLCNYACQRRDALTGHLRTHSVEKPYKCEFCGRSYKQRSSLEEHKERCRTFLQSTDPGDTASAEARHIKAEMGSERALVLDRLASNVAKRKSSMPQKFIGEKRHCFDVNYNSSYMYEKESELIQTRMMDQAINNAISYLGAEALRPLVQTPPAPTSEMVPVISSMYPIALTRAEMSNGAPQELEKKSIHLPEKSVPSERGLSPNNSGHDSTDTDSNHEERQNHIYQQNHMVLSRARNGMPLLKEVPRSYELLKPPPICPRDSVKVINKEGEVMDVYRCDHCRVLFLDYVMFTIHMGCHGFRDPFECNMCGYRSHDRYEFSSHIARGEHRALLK
Structure (SMILES),pEC50 [1],inhibition at 1 µM [2] [%],DC50 [3] [nM],DC50 [4] [µM],inhibition at 1 µM [4] [%],IKZF2 % Degradation @ 1 μM [2] [%]
"O=C1CCC(N2Cc3cc(O[C@H]4CCCC[C@@H]4N4CC(c5ccc(C(F)(F)F)cn5)C4)ccc3C2=O)C(=O)N1 (single isomer, unassigned) [Compound 130-B]",8.00,94.8,5,0.0441,37.4,
"O=C1CCC(N2Cc3cc(O[C@@H]4CCCC[C@H]4N4CC(c5ccc(C(F)(F)F)cn5)C4)ccc3C2=O)C(=O)N1 (single isomer, unassigned) [Compound 129-B]",7.42,,20,> 30,,42.4
"O=C1CCC(N2Cc3cc(O[C@@H]4CCCC[C@H]4N4CC(c5ccc(C(F)(F)F)nc5)C4)ccc3C2=O)C(=O)N1 (single isomer, unassigned) [Compound 125-B]",7.19,50.9,83,> 30,,
"O=C1CCC(N2Cc3cc(O[C@H]4CCCC[C@@H]4N4CC(c5ncc(C6CC6)cn5)C4)ccc3C2=O)C(=O)N1 (single isomer, unassigned) [Compound 134-B]",8.30,70.4,5,> 30,,
"O=C1CCC(N2Cc3cc(O[C@H]4CCCC[C@@H]4N4CC(c5ccc6ccccc6n5)C4)ccc3C2=O)C(=O)N1 (single isomer, unassigned) [Compound 90-B]",8.22,,1,> 30,,87.1
"O=C1CCC(N2Cc3cc(O[C@H]4CCCC[C@@H]4N4CC(C5CCN(C(=O)c6ccccc6)CC5)C4)ccc3C2=O)C(=O)N1 (stereo partly drawn) [Compound 24-A, 3-(5-{[(1S,2S)-2-[3-(1-benzoylpiperidin-4-yl)azetidin-1-yl]cyclohexyl]oxy}-1-oxo-2,3-dihydro-1H-isoindol-2-yl)piperidine-2,6-dione]",7.89,76.7,6,> 30,,
"O=C1CCC(N2Cc3cc(OC4CCCC4N4CC(c5ccc(C(F)(F)F)cn5)C4)ccc3C2=O)C(=O)N1 (centres unmarked) [Compound 147-B, 3-(1-oxo-5-((2-(3-(5-(trifluoromethyl)pyridin-2-yl)azetidin-1-yl)cyclopentyl)oxy)isoindolin-2-yl)piperidine-2,6-dione]",7.66,28.6,130,> 30,,
"O=C1CCC(N2Cc3cc(O[C@@H]4CCCC[C@@H]4N4CC(c5ccc6ccccc6n5)C4)ccc3C2=O)C(=O)N1 (single isomer, unassigned) [Compound 91-B]",8.30,47.3,29,> 30,,
"O=C1CCC(N2Cc3cc(O[C@H]4CCCC[C@@H]4N4CC(c5ccc(C(F)(F)F)nc5)C4)ccc3C2=O)C(=O)N1 (single isomer, unassigned) [Compound 126-B]",8.15,94.8,6,0.0866,39.5,
"O=C1CCC(N2Cc3cc(O[C@@H]4CCCC[C@H]4N4CC(c5ccc(C(F)(F)F)cn5)C4)ccc3C2=O)C(=O)N1 (single isomer, unassigned) [Compound 128-B]",7.96,24.2,18,> 30,,
"O=C1CCC(N2Cc3cc(O[C@H]4CCCC[C@@H]4N4CC(c5ccc(Cl)cn5)C4)ccc3C2=O)C(=O)N1 (single isomer, unassigned) [Compound 99-B]",8.40,81.3,6,> 30,,
"O=C1CCC(N2Cc3cc(O[C@@H]4CCCC[C@@H]4N4CC(c5ccc6ccccc6n5)C4)ccc3C2=O)C(=O)N1 (mixture of isomers) [Compound 146-B, Rac-3-(1-oxo-5-(((cis)-2-(3-(quinolin-2-yl)azetidin-1-yl)cyclohexyl)oxy)isoindolin-2-yl)piperidine-2,6-dione]",7.92,74.9,7,> 30,,

# Further molecules by rising pEC50 [1], results first:
pEC50 [1],inhibition at 1 µM [2] [%],DC50 [3] [nM],DC50 [4] [µM],inhibition at 1 µM [4] [%],IKZF2 % Degradation @ 1 μM [2] [%],Structure (SMILES)
6.78,31.5,605,> 30,,,"O=C1CCC(N2Cc3cc(OC4CCCCC4N4CC(c5cccnn5)C4)ccc3C2=O)C(=O)N1 (centres unmarked) [Compound 142-B, 3-(1-oxo-5-((2-(3-(pyridazin-3-yl)azetidin-1-yl)cyclohexyl)oxy)isoindolin-2-yl)piperidine-2,6-dione]"
7.23,,18,> 30,,69.9,"O=C1CCC(N2Cc3cc(O[C@H]4CCCC[C@@H]4N4CC(c5ccncc5F)C4)ccc3C2=O)C(=O)N1 (single isomer, unassigned) [Compound 103-B]"
7.49,73.4,16,> 30,,,"O=C1CCC(N2Cc3cc(O[C@@H]4CCCC[C@@H]4N4CC(c5ccncc5F)C4)ccc3C2=O)C(=O)N1 (mixture of isomers) [Compound 153-B, Rac-3-(5-(((cis)-2-(3-(3-fluoropyridin-4-yl)azetidin-1-yl)cyclohexyl)oxy)-1-oxoisoindolin-2-yl)piperidine-2,6-dione]"
7.89,< 30,34,> 30,,,"O=C1CCC(N2Cc3cc(OC4CCCC4N4CC(c5c[nH]c6ccccc56)C4)ccc3C2=O)C(=O)N1 (centres unmarked) [Compound 181-B, 3-(5-((2-(3-(1H-indol-3-yl)azetidin-1-yl)cyclopentyl)oxy)-1-oxoisoindolin-2-yl)piperidine-2,6-dione]"
7.92,81.7,7,> 30,,,"O=C1CCC(N2Cc3cc(O[C@H]4CCCC[C@@H]4N4CC(c5ncncc5Cl)C4)ccc3C2=O)C(=O)N1 (single isomer, unassigned) [Compound 92-B]"
8.22,73.7,4,> 30,,,"O=C1CCC(N2Cc3cc(O[C@H]4CCCC[C@@H]4N4CC(c5cncc(Cl)c5)C4)ccc3C2=O)C(=O)N1 (single isomer, unassigned) [Compound 116-B]"
8.52,86.2,2,> 30,,,"O=C1CCC(N2Cc3cc(O[C@H]4CCCC[C@@H]4N4CC(c5ccc6ccccc6n5)C4)ccc3C2=O)C(=O)N1 (single isomer, unassigned) [Compound 89-B]"
8.52,43.9,41,> 30,,,"O=C1CCC(N2Cc3cc(O[C@H]4CCCC[C@@H]4N4CC(c5ccc6ccccc6n5)C4)ccc3C2=O)C(=O)N1 (mixture of isomers) [Compound 152-B, Rac-3-(1-oxo-5-(((trans)-2-(3-(quinolin-2-yl)azetidin-1-yl)cyclohexyl)oxy)isoindolin-2-yl)piperidine-2,6-dione]"
9.00,74.7,1,> 30,,,"CC(C)(C)OC(=O)N1CCC(C2CN([C@H]3CCCC[C@@H]3Oc3ccc4c(c3)CN(C3CCC(=O)NC3=O)C4=O)C2)CC1 (stereo partly drawn) [Compound 26-A, tert-butyl 4-(1-((1S,2S)-2-((2-(2,6-dioxopiperidin-3-yl)-1-oxoisoindolin-5-yl)oxy)cyclohexyl)azetidin-3-yl)piperidine-1-carboxylate]"
